Article PMC3784060 (Cancer Chemotherapy and Pharmacology, 2013)
“And” between values parts separate entries of the source, which are not always exact repeats. Equal entries are not always repeated. Where two headings read alike, the source gives them in different places.

Experiments:
[1] = test system: relapsed/refractory AML and ALL; test: phase II study in acute leukemia: response, blast/WBC reduction, time to progression; type: in vivo, human; settings: for median WBC count: pretreatment 2,650
Experimental: Each cycle lasted 21 days. Patient could continue treatment on the study in the absence of disease progression or unacceptable toxicity. The next cycle of therapy could start if non-hematologic toxicity from previous cycle recovered to ≤grade 1, and dose delay of up to 3 weeks was allowed for recovery. Permanent dose reduction was required for any ≥grade 3 clinically significant non-hematologic adverse event (70 mg/m^2 → 50 mg/m^2; 50 mg/m^2 → 40 mg/m^2; 40 mg/m^2 → 30 mg/m^2; 30 mg/m^2 → discontinue). To allow for continued treatment of subjects whose cytopenias were due to leukemia and not due to drug toxicity, subsequent cycles of treatment were allowed if absolute neutrophil count (ANC) ≥0.5 × 10^9/L or for ANC <0.5 × 10^9/L but no more than 20 % below the baseline pretreatment levels and platelet count ≥20 × 10^9/L or platelets <20 × 10^9/L but no more than 20 % below the baseline pretreatment levels. Anti-emetic prophylaxis including serotonin-receptor antagonist, metoclopramide, or prochloperazine with or without dexamethasone was allowed. […] Dexamethasone 20 mg IV was given early if symptoms of cytokine release syndrome were observed.
Response was assessed by bone marrow (BM) examination on day 21 of cycles 1 and 2, and every 6 weeks thereafter until complete remission or progressive disease (PD). Response was determined according to the revised recommendations of the International Working Group (IWG) for AML [33]. Toxicities were graded according to the National Cancer Institute Common Terminology Criteria for Adverse Events (NCI CTCAE), version 3.0 (http://ctep.cancer.gov/protocolDevelopment/electronic_applications/docs/ctcaev3.pdf). Hematologic and chemistry profiles were monitored on day 1 and 2 of each cycle or until resolution of acute toxicities and subsequently at least once a week or more frequently depending on the individual patient’s needs.
The primary efficacy endpoint of the study was the ORR, including complete remission (CR), CR with incomplete count recovery (CRi), and partial remission.

[2] = cited from earlier work
[3] = 13 patients with circulating blasts, within 1–8 days of first dose
[4] = AML patients, all treated subjects
[5] = patients with circulating blasts

CCc1cnn2c(NCc3ccc[n+]([O-])c3)cc(N3CCCC[C@H]3CCO)nc12 [Dinaciclib]
objective responses by IWG criteria ([1]; 50 mg/m^2 2-h infusion every 21 days, 20 patients): No objective responses
average reduction in BM blasts ([1]; 8 of 13 patients with follow-up BM evaluations): 36%
patients with >50 % decrease in absolute blast count (ABC) [1, 3]: 77%
patients with >80 % decrease in absolute blast count (ABC) [1, 3]: 46%
TTP ([1]; ALL patients): 1 to 8.14 weeks
median TTP ([1]; AML patients included in the initial randomization): 5.14 weeks
Beta Posterior Mean (Bayes estimate of the response rate) [1, 4]: 0.071
Difference in observed response rate (SCH727965 - Mylotarg) [1, 4]: -12.500%
Number of Non-responders [1, 4]: 12
Number of Responders [1, 4]: 0
Posterior Probability (This treatment is better) [1, 4]: 0.200
Observed Response Rate (%) ([1]; AML patients, all treated subjects, frequentist approach): 0.000%
Median time to progression, Estimate ([1]; all treated AML patients): 5.14 weeks
Number of Events (progression) ([1]; all treated AML patients): 10
median WBC count ([1]; day 2): 1,045 × 10^6/L
median WBC count ([1]; day 8): 1,350 × 10^6/L
median duration of the WBC nadir ([1]; in vivo): 5 days
patients with temporary decrease in PB and/or marrow blasts ([1]; in vivo): 60%
duration of ABC nadir [1, 5]: 7 days
median time to ABC nadir [1, 5]: 3 days
median ABC nadir ([1]; patients with circulating blasts, pre-treatment 1,130): 2e+08 L⁻¹
TTP ([1]; two AML patients who crossed over from GO, individual values): 7.86 weeks and 9.14 weeks
recommended phase II dose (RPTD) ([2]; 2-h infusion on days 1, 8, 15 every 28 days): 12 mg/m^2
recommended phase II dose (RPTD) ([2]; 2-h infusion once every 21 days): 50 mg/m^2
average dinaciclib concentration ([2]; 8-h continuous infusion, 7.4–50 mg/m^2, preliminary): 200–1,031 nM
average dinaciclib concentration ([2]; 24-h continuous infusion, 7.4–14.6 mg/m^2, preliminary): 82.3 to 184 nM
